Results taken from PubChem BioAssay AID1355 (Sanford-Burnham Center for Chemical Genomics, 2008).
Active and inactive are the calls of the source.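 How the source made its calls: active means survival at least 30 percentage points above the stressed untreated control at any dose of the stressor; inactive means the rest.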

Test system: SW-1 melanoma, thapsigargin-induced death, ATPlite luminescence, 24 h
Test: protection from thapsigargin-induced SW-1 death, SAR follow-up, cell-based, SW-1 melanoma, ATP content luminescence (AID 1355)
Details: at 25 µM, stronger effect = higher value
[1] = measured here: thapsigargin 7.5 uM
[2] = measured here: thapsigargin 15 uM

SMILES | survival | survival [1] [%] | survival [2] [%]
O=C1CC(c2ccccc2)CC2=C1C(c1c(F)cccc1Cl)Nc1ccccc1N2 (stereo not drawn) | 73% | 72 | 3
CCCOc1ccc(C2Nc3ccccc3NC3=C2C(=O)CC(c2ccc(OC)c(OC)c2)C3)cc1 (stereo not drawn) | 83% | 71 | 3
CC1(C)CC(=O)C2=C(C1)Nc1ccccc1NC2c1ccc(-c2ccccc2)cc1 (stereo not drawn) | 66% | 69 | 7
COc1ccc(C2CC(=O)C3=C(C2)Nc2ccccc2NC3c2cccc(Br)c2)cc1OC (stereo not drawn) | 67% | 72 | 7
COc1ccc(C2CC(=O)C3=C(C2)Nc2ccccc2NC3c2cccc(C(F)(F)F)c2)cc1OC (stereo not drawn) | 86% | 75 | 8
COc1ccc(C2CC(=O)C3=C(C2)Nc2ccccc2NC3c2cc(C)ccc2C)cc1 (stereo not drawn) | 83% | 72 | 9
CCOc1cccc(C2Nc3ccccc3NC3=C2C(=O)CC(c2ccc(OC)cc2)C3)c1 (stereo not drawn) | 33% (inactive) | 75 | 3
COc1ccc(C2CC(=O)C3=C(C2)Nc2ccccc2NC3c2ccccc2C(F)(F)F)cc1OC (stereo not drawn) | 98% | 89 | 7
CSc1ccc(C2Nc3ccccc3NC3=C2C(=O)CC(c2ccccc2)C3)cc1 (stereo not drawn) | 74% | 72 | 23
CCOc1cc(C2Nc3ccccc3NC3=C2C(=O)CC(c2ccc(OC)cc2)C3)cc(Cl)c1O (stereo not drawn) | 30% (inactive) | 71 | 2
COc1ccc(C2CC(=O)C3=C(C2)Nc2ccccc2NC3c2cccc(Oc3ccccc3)c2)cc1OC (stereo not drawn) | 84% | 77 | 18
